Results: patent publication US20230167073A1 (Teijin Pharma Limited, priority 2020, published 2023)

Molecular target: T1, Human TRPC6 (Homo sapiens, UniProt Q9Y210)
T1 construct: expressed in transfected cells
T1 sequence (Q9Y210 1-931): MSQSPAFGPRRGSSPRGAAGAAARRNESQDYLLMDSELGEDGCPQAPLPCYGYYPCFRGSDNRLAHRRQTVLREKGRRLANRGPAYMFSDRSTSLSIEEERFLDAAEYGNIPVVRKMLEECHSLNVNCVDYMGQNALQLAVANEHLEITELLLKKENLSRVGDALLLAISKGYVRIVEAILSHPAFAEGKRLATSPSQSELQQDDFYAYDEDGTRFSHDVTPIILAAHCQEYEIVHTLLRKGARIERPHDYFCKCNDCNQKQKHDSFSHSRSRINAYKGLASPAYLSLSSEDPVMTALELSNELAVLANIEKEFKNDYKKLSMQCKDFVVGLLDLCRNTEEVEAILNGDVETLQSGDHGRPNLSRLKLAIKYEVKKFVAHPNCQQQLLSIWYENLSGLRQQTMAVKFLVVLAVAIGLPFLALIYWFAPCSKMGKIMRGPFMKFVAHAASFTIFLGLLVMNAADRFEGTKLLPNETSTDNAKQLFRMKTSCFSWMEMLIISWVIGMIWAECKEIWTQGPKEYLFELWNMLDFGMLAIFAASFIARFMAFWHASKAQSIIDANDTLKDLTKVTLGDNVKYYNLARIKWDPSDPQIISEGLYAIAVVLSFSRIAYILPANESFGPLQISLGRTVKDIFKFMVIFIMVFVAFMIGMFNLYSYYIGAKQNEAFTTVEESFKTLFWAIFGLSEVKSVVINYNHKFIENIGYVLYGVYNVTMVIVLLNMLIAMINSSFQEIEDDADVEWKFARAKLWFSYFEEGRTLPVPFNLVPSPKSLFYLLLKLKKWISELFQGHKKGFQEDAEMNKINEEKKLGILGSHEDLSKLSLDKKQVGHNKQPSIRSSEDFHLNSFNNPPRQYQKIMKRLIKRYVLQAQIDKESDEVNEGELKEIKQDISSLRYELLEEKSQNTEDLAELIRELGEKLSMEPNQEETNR
Assay: Evaluation of TRPC6 channel inhibitory activity (1), FLIPR Calcium 5 Assay Kit, OAG stimulation (Compound Nos. 1-1293)
Format: cell-based
Conditions: Human TRPC6 stably-expressing cells, OAG 30 μM, FLIPR Calcium 5 Assay Kit; read-out: Inhibitory activity (pIC50 class) (converted)
Outline: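 Stable human TRPC6 line; fluorescent Ca2+ dye loading, then 20 min compound exposure before 30 μM OAG trigger. Peak-minus-baseline signal converted to % inhibition against untreated and unstimulated wells; potency given as pIC50 band.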

IC50, < 10 nM:
Cn1nc(N2CCOCC2)cc1C(=O)c1cc(F)ccc1-c1ccc(CCN)cn1 [compound 1106, [2-[5-(2-aminoethyl)pyridin-2-yl]-5-fluorophenyl]-(2-methyl-5-morpholin-4-ylpyrazol-3-yl)methanone]
Cn1nc(N2CCOCC2)cc1C(=O)c1cc(F)ccc1-c1ncc(CCN)cn1 [compound 1107, [2-[5-(2-aminoethyl)pyrimidin-2-yl]-5-fluorophenyl]-(2-methyl-5-morpholin-4-ylpyrazol-3-yl)methanone]
NCCc1ccc(-c2ccc(F)cc2C(=O)c2cnn(C3CCC3)c2)nc1 [compound 1110, [2-[5-(2-aminoethyl)pyridin-2-yl]-5-fluorophenyl]-(1-cyclobutylpyrazol-4-yl)methanone]
Cc1nc(-c2ccccc2)cn1Cc1cc(C#N)ccc1-c1ccc(CCN)cc1 [compound 1120, 4-[4-(2-aminoethyl)phenyl]-3-[(2-methyl-4-phenylimidazol-1-yl)methyl]benzonitrile]
N#Cc1ccc(-c2ccc(C(O)CN)cc2)c(Cn2cnc(-c3ccccc3)c2)c1 (stereo not drawn) [compound 1129, 4-[4-(2-amino-1-hydroxyethyl)phenyl]-3-[(4-phenylimidazol-1-yl)methyl]benzonitrile]
Cc1nc(-c2ccccc2)cn1Cc1cc(C#N)ccc1-c1ccc(C(O)CN)cc1 (stereo not drawn) [compound 1130, 4-[4-(2-amino-1-hydroxyethyl)phenyl]-3-[(2-methyl-4-phenylimidazol-1-yl)methyl]benzonitrile]

IC50, > 1000 nM:
Cc1nc(C(=O)c2cc(F)ccc2-c2ncc(CN)cn2)cc(N2CCOCC2)n1 [compound 1104, [2-[5-(aminomethyl)pyrimidin-2-yl]-5-fluorophenyl]-(2-methyl-6-morpholin-4-ylpyrimidin-4-yl)methanone]
N#Cc1ccc(-c2ccc(CCN)cc2)c(Cn2ccc(-c3ccccc3)n2)c1 [compound 1112, 4-[4-(2-aminoethyl)phenyl]-3-[(3-phenylpyrazol-1-yl)methyl]benzonitrile]
CC(C)NC(=O)c1cn(Cc2cc(C#N)ccc2-c2ccc(CCN)cc2)cn1 [compound 1113, 1-[[2-[4-(2-aminoethyl)phenyl]-5-cyanophenyl]methyl]-N-propan-2-ylimidazole-4-carboxamide]
CC(C)CNC(=O)c1cn(Cc2cc(C#N)ccc2-c2ccc(CCN)cc2)cn1 [compound 1114, 1-[[2-[4-(2-aminoethyl)phenyl]-5-cyanophenyl]methyl]-N-(2-methylpropyl)imidazole-4-carboxamide]
CC(C)CNC(=O)c1cncn1Cc1cc(C#N)ccc1-c1ccc(CCN)cc1 [compound 1115, 3-[[2-[4-(2-aminoethyl)phenyl]-5-cyanophenyl]methyl]-N-(2-methylpropyl)imidazole-4-carboxamide]
COCc1cncn1Cc1cc(C#N)ccc1-c1ccc(CCN)cc1 [compound 1116, 4-[4-(2-aminoethyl)phenyl]-3-[[5-(methoxymethyl)imidazol-1-yl]methyl]benzonitrile]
COCc1cn(Cc2cc(C#N)ccc2-c2ccc(CCN)cc2)cn1 [compound 1118, 4-[4-(2-aminoethyl)phenyl]-3-[[4-(methoxymethyl)imidazol-1-yl]methyl]benzonitrile]
CCCc1nccn1Cc1cc(C#N)ccc1-c1ccc(CCN)cc1 [compound 1121, 4-[4-(2-aminoethyl)phenyl]-3-[(2-propylimidazol-1-yl)methyl]benzonitrile]
N#Cc1ccc(-c2ccc(CCN)cc2)c(Cn2cnc(-n3ccnn3)c2)c1 [compound 1122, 4-[4-(2-aminoethyl)phenyl]-3-[[4-(triazol-1-yl)imidazol-1-yl]methyl]benzonitrile]
N#Cc1ccc(-c2ccc(CCN)cc2)c(Cn2cnc(-n3cnnn3)c2)c1 [compound 1123, 4-[4-(2-aminoethyl)phenyl]-3-[[4-(tetrazol-1-yl)imidazol-1-yl]methyl]benzonitrile]
N#Cc1ccc(-c2ccc(CCN)cc2)c(Cn2cnc(-c3ccc(C(F)(F)F)cc3)c2)c1 [compound 1124, 4-[4-(2-aminoethyl)phenyl]-3-[[4-[4-(trifluoromethyl)phenyl]imidazol-1-yl]methyl]benzonitrile]
Cc1nc(-c2ccc(C(F)(F)F)cc2)cn1Cc1cc(C#N)ccc1-c1ccc(CCN)cc1 [compound 1125, 4-[4-(2-aminoethyl)phenyl]-3-[[2-methyl-4-[4-(trifluoromethyl)phenyl]imidazol-1-yl]methyl]benzonitrile]
Cc1nc(COC(C)C)cn1Cc1cc(C#N)ccc1-c1ccc(CCN)cc1 [compound 1126, 4-[4-(2-aminoethyl)phenyl]-3-[[2-methyl-4-(propan-2-yloxymethyl)imidazol-1-yl]methyl]benzonitrile]
N#Cc1ccc(-n2cc(C(O)CN)cn2)c(Cn2cnc(-c3ccccc3)c2)c1 (stereo not drawn) [compound 1127, 4-[4-(2-amino-1-hydroxyethyl)pyrazol-1-yl]-3-[(4-phenylimidazol-1 yl)methyl]benzonitrile]
Cc1nc(-c2ccccc2)cn1Cc1cc(C#N)ccc1-n1cc(C(O)CN)cn1 (stereo not drawn) [compound 1128, 4-[4-(2-amino-1-hydroxyethyl)pyrazol-1-yl]-3-[(2-methyl-4-phenylimidazol-1-yl)methyl]benzonitrile]
N#Cc1ccc(-c2ccc(C(O)CN)cn2)c(Cn2cncc2-c2ccccc2)c1 (stereo not drawn) [compound 1133, 4-[5-(2-amino-1-hydroxyethyl)pyridin-2-yl]-3-[(5-phenylimidazol-1-yl)methyl]benzonitrile]
N#Cc1ccc(-c2ncc(CCN)cn2)c(Cn2cncc2-c2ccccc2)c1 [compound 1134, 4-[5-(2-aminoethyl)pyrimidin-2-yl]-3-[(5-phenylimidazol-1-yl)methyl]benzonitrile]

IC50, 10 to 1000 nM:
NCCc1cnc(-c2ccc(F)cc2C(=O)c2cnn(CC3CC3)c2)nc1 [compound 1101, [2-[5-(2-aminoethyl)pyrimidin-2-yl]-5-fluorophenyl]-[1-(cyclopropylmethyl)pyrazol-4-yl]methanone]
CC(C)n1cc(C(=O)c2cc(F)ccc2-c2ncc(CCN)cn2)cn1 [compound 1102, [2-[5-(2-aminoethyl)pyrimidin-2-yl]-5-fluorophenyl]-(1-propan-2-ylpyrazol-4-yl)methanone]
Cc1nc(C(=O)c2cc(F)ccc2-c2ncc(CCN)cn2)cc(N2CCOCC2)n1 [compound 1103, [2-[5-(2-aminoethyl)pyrimidin-2-yl]-5-fluorophenyl]-(2-methyl-6-morpholin-4-ylpyrimidin-4-yl)methanone]
Cn1nc(N2CCOCC2)cc1C(=O)c1cc(F)ccc1-c1ncc(CN)cn1 [compound 1105, [2-[5-(aminomethyl)pyrimidin-2-yl]-5-fluorophenyl]-(2-methyl-5-morpholin-4-ylpyrazol-3-yl)methanone]
NCCc1cnc(-c2ccc(F)cc2C(=O)c2cnn(C3CCC3)c2)nc1 [compound 1108, [2-[5-(2-aminoethyl)pyrimidin-2-yl]-5-fluorophenyl]-(1-cyclobutylpyrazol-4-yl)methanone]
NCc1cnc(-c2ccc(F)cc2C(=O)c2cnn(C3CCC3)c2)nc1 [compound 1109, [2-[5-(aminomethyl)pyrimidin-2-yl]-5-fluorophenyl]-(1-cyclobutylpyrazol-4-yl)methanone]
N#Cc1ccc(-c2ccc(CCN)cc2)c(Cn2cnc(-c3ccccc3)c2)c1 [compound 1111, 4-[4-(2-aminoethyl)phenyl]-3-[(4-phenylimidazol-1-yl)methyl]benzonitrile]
CC(C)COCc1cncn1Cc1cc(C#N)ccc1-c1ccc(CCN)cc1 [compound 1117, 4-[4-(2-aminoethyl)phenyl]-3-[[5-(2-methylpropoxymethyl)imidazol-1-yl]methyl]benzonitrile]
CC(C)COCc1cn(Cc2cc(C#N)ccc2-c2ccc(CCN)cc2)cn1 [compound 1119, 4-[4-(2-aminoethyl)phenyl]-3-[[4-(2-methylpropoxymethyl)imidazol-1-yl]methyl]benzonitrile]
N#Cc1ccc(-c2ccc(CCN)nc2)c(Cn2cnc(-c3ccccc3)c2)c1 [compound 1132, 4-[6-(2-aminoethyl)pyridin-3-yl]-3-[(4-phenylimidazol-1-yl)methyl]benzonitrile]
